Data from patent publication US20230048576A1, “COMPOUNDS FOR THE TREATMENT OF NEUROPATHIC PAIN” (City of Hope, priority 2019, published 2023).
“And” between values parts separate entries of the source, which are not always exact repeats. Equal entries are not always repeated. Marks after values point to notes of the source that are not given here.

Tests used:
[1] = Mean group body weight in Taxol model; assay type: in vivo, rat; conditions: 150 mg/kg IP, Group 2
Description: (§1) Neuropathic pain was induced by intraperitoneal administration of Taxol at a dose level of 6 mg/kg on study days 0-6 and 12 mg/kg on study days 7-12. Following injection of Taxol animals experienced pain as was assessed using the von Frey test. The development of neuropathic pain was confirmed by measuring mechanical allodynia (Von Frey test) on study day 13 (for inclusion) and on study day 14 (1 hour and 2 hour post dosing) and 24 hour post first dosing.

[2] = Survival of animals during the study; assay type: in vivo, rat; conditions: 150 mg/kg IP, Group 2
Description: as §1

[3] = system: CNS activity (motor coordination and balance); assay: Rotarod test; assay type: in vivo, rats; conditions: 150 mg/kg i.p.; 1 and 6 hr post-dosing
Description: The objective of this study was to evaluate the potential CNS effects of LR-90 and gabapentin (the latter a widely used drug for neuropathic pain) in rats. LR-90 in 20% HPβCD formulation was delivered at a dose of 50 or 100 mg/kg by oral gavage and gabapentin (150 mg/kg) was delivered by i.p. injection. The rotarod test was employed to measure the CNS activity (motor coordination and balance) and the performance time was recorded at 0 (baseline), 1, 6 and 24 hr post-dose.

[4] = system: Taxol-induced neuropathic pain; assay: Von Frey test (mechanical allodynia) in Taxol induced model of neuropathic pain; assay type: in vivo, rat; conditions: Group 2; for mean Von Frey force required for withdrawal: 150 mg/kg IP
Description: as §1
All data are presented as means±SEM. Each treatment group was compared to the Vehicle group using Two way ANOVA (for VF) followed by Tukey post-test (GraphPad). Vehicle group is compared to naïve group using T-test. A p value<0.05 is considered to represent a significant difference.
The response to tactile allodynia was evaluated using the Von Frey apparatus (Touch Test®). The rat was placed in an enclosure and positioned on a metal mesh surface, but allowed to move freely. A set of dull monofilaments provide an increasing force was applied on the animal plantar surface of the paw. The lowest force requires for animal paw withdrawal was recorded. Low force values recorded in this test indicate a painful state.

In the case of `NCC1(CC(=O)O)CCCCC1` [Gabapentin, reference compound], the “Mean group body weight” value ([1]; Baseline) is reported as 223.38 g, the “Mean group body weight” value ([1]; Day 1) is reported as 235.25 g and the “Mean group body weight (% from baseline)” value ([1]; Day 1) is reported as 105.31%. For the same compound, the “Mean group body weight” value ([1]; Day 3) was 237.50 g, the “Mean group body weight (% from baseline)” value ([1]; Day 3) was 106.31% and the “Mean group body weight” value ([1]; Day 5) was 258.13 g. For the same compound, the “Mean group body weight (% from baseline)” value ([1]; Day 5) was 115.54%, the “Mean group body weight” value ([1]; Day 7) was 269.25 g and the “Mean group body weight (% from baseline)” value ([1]; Day 7) was 120.50%. For the same compound, the “Mean group body weight” value ([1]; Day 9) was 278.75 g, the “Mean group body weight (% from baseline)” value ([1]; Day 9) was 124.74% and the “Mean group body weight” value ([1]; Day 11) was 287.63 g. For the same compound, the “Mean group body weight (% from baseline)” value ([1]; Day 11) was 128.71%, the “Mean group body weight” value ([1]; Day 13) was 289.50 g and the “Mean group body weight (% from baseline)” value ([1]; Day 13) was 129.56%. For the same compound, the “Mean group body weight” value ([1]; Day 16) was 281.00 g, the “Mean group body weight (% from baseline)” value ([1]; Day 16) was 125.68% and the “Mean group body weight” value ([1]; Day 20) was 274.38 g. The “Mean group body weight (% from baseline)” value ([1]; Day 20) was 122.79%, the “Mean group body weight” value ([1]; Day 23) was 263.38 g and the “Mean group body weight (% from baseline)” value ([1]; Day 23) was 117.94%. For the same compound, the “Mean group body weight” value ([1]; Day 26) was 247.75 g, the “Mean group body weight (% from baseline)” value ([1]; Day 26) was 113.52% and the “Survived Animals in %” value ([2]; Study Day 13) was 100%. The “Survived Animals in %” value ([2]; Study Day 14) was 100%, the “Survived Animals in %” value ([2]; Study Day 15) was 100% and the “Survived Animals in %” value ([2]; Study Day 16) was 100%. For the same compound, the “Survived Animals in %” value ([2]; Study Day 17) was 100%, the “Survived Animals in %” value ([2]; Study Day 18) was 100% and the “Survived Animals in %” value ([2]; Study Day 19) was 100%. For the same compound, the “Survived Animals in %” value ([2]; Study Day 20) was 100%, the “Survived Animals in %” value ([2]; Study Day 21) was 100% and the “Survived Animals in %” value ([2]; Study Day 22) was 100%. The “Survived Animals in %” value ([2]; Study Day 23) was 100%, the “Survived Animals in %” value ([2]; Study Day 24) was 88% and the “Survived Animals in %” value ([2]; Study Day 25) was 63%. The “Survived Animals in %” value ([2]; Study Day 28) was 50%, the “rotarod performance time compared with vehicle control group” value [3] was “significantly decreased” and the “mean Von Frey force required for withdrawal” value (“mean Von Frey force required” below) ([4]; Baseline) was 57.88 g. The “mean Von Frey force required” value ([4]; Day 13 pre dosing) was 9.81 g, the “mean Von Frey force required” value ([4]; Day 14 1 hour post dosing) was 45.13**** g and the “mean Von Frey force required” value ([4]; Day 14 2 hours post dosing) was 55.75±2.78 g and 55.75**** g. The “mean Von Frey force required” value ([4]; Day 15 24 hours post dosing) was 19.56 g and the “effect on neuropathic pain compared to the vehicle group (Von Frey test)” value ([4]; 150 mg/kg, 1 hour and 2 hour post dosing on study day 14) was “statistically significantly reduced the neuropathic pain”.
